Source: paper PMC4501006, “Preliminary Characterization and In Vivo Studies of Structurally Identical ^18F- and ^125I-Labeled Benzyloxybenzenes for PET/SPECT Imaging of β-Amyloid Plaques” (Scientific Reports, 2015)

What was measured:
[1] = Partition coefficient determination (log D); type: physicochemical
Method: An ideal Aβ imaging probe would combine a high binding affinity to Aβ plaques and excellent pharmacokinetics with high initial brain uptake and rapid washout from normal brain regions. Thus, the partition coefficients of these four radiolabeled ligands were determined to estimate their ability to penetrate the BBB.

[2] = In vivo metabolism (biostability), HPLC analysis of organ samples; details: ICR mice, i.v.
Method: All four radioactive ligands degraded to two corresponding polar radioactive products with shorter retention times. […] The good in vivo biostability of these compounds enhances their potential for SPECT mapping of the brain. […] In the plasma, all four ligands were rapidly converted to polar metabolites, leaving only approximately 10% of the parent tracers at 60 min. […] In contrast, the breakdown of [^125I]7a and [^125I]12a was so rapid that almost negligible amounts of parent tracers remained at 30 min (8.8% and 6.3%, respectively). The polar and hydrophilic metabolites metabolized by the liver could be absorbed by the intestine and excreted through the urine, in accordance with the biodistribution results. The rapid metabolism in the liver may be another reason for the faster clearance of these compounds from the normal brain. For structurally identical molecules labeled with radioactive isotopes at different positions, the in vivo metabolic pathways were expected to be the same. However, as only radioactive products can be detected with PET/SPECT scanners, different pharmacokinetics of the radioactive components could lead to different imaging results. […] The dual radiolabeled identical benzyloxybenzene derivatives in this study were expected to undergo the same metabolic reactions, generating different radioactive metabolites. Differences in the biochemical characteristics of the radiometabolites including absorption, distribution, metabolism and excretion are responsible for the discrepancy in the pharmacokinetics of the radioactivity.

[3] = Dynamic microPET/CT imaging in normal ICR mice; type: in vivo; details: for brain radioactivity retention from PET time-activity curve: at 60 min; for muscle and bone uptake, standardized uptake value (SUV): entire 60 min PET scan
Method: To further assess the pharmacokinetics of these two couple of radiolabeled benzyloxybenzenes, following dynamic PET/CT and SPECT/CT scans were conducted in normal ICR mice. High contrast PET and SPECT images implied that all the four radiolabeled benzyloxybenzenes can penetrate the BBB to a great degree and washout from the normal brain regions (Fig. 7a). […] Sustained low muscle and bone uptakes were observed during the entire 60 min scans with standardized uptake values (SUV) of approximate 0.7. […] These PET imaging data well matched the in vivo biodistribution results.
Four normal ICR mice (20–22 g, male) were used for dynamic microPET/CT and microSPECT/CT imaging. The whole-body PET/CT scans were performed using Siemens Inveon device (Siemens Medical Solutions), while SPECT/CT scans were conducted with Mediso nanoScan SPECT/CT scanner (Mediso Medical Imaging System). All mice were anesthetized with 2% isoflurane. Dynamic PET and SPECT scans from 0 to 60 min were started immediately after intravenous injection of [^18F]7a (injected dose, 2.2 MBq), [^18F]12a (injected dose, 4.1 MBq), [^125I]7a (injected dose, 25 MBq), and [^125I]12a (injected dose, 48 MBq), respectively. PET images were reconstructed using three-dimensional ordered subsets expectation maximization (3D OSEM) algorithm, and 3D iterative algorithm was used for SPECT image reconstruction. Time frames for PET imaging were 20 × 60 s and 10 × 240 s, and that for SPECT imaging were 20 × 180 s. Regions of interests (ROIs) were manually drawn on the whole brain, heart, liver, muscle and bone using the CT templates and then transferred to corresponding coregistered PET images. SUVs, injected dose and body weight normalized and decay corrected radioactivity concentration, were calculated for all ROIs. TACs were calculated from this.

Aβ plaques [4] = target: T1, Aβ plaques (Homo sapiens, UniProt P05067); experiment: In vitro autoradiography on AD human brain sections; type: binding
T1 sequence (P05067 672-711 limits assumed): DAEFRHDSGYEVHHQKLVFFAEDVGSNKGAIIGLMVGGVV
Description: Figure 5 In vitro autoradiography of [^125I]7a (a–d), [^18F]7a (e–h), [^125I]12a (i–l) and [^18F]12a (m–p).

Aβ plaques [5] = target: T1, Aβ plaques; experiment: Ex vivo autoradiography and brain radioactivity retention, Tg versus wild-type mouse; type: in vivo, Tg mouse (APPswe/PSEN1); details: 30 min post-injection
Method: To further characterize the in vivo Aβ imaging capabilities, we conducted ex vivo autoradiographic studies with [^125I]7a which combined high binding affinity, high initial brain uptake, fast clearance and excellent in vivo biostability in the brain. [^125I]7a (1 mCi, 200 μL) was injected intravenously into a Tg mouse (APPswe/PSEN1, male, 27 months old) and an age-matched wild-type mouse (C57BL6, male). Thirty minutes after injection, the brains were removed, weighed and the radioactivity was counted. Then the brains were frozen and sectioned for ex vivo autoradiography. […] Ex vivo autoradiography was performed on a transgenic mouse (APPswe/PSEN1, male, 27 months old) and a wild-type mouse (C57BL6, male, 27 months old). A saline solution (200 μL, 10% EtOH) of 1 mCi of [^125I]7a was injected into the mice via the tail vein. The mice were sacrificed by decapitation at 30 min post-injection, and the brains were immediately removed, weighed and the radioactivity was counted. Frozen brain sections of 20 μm were cut and exposed to a phosphorus plate (Perkin-Elmer, USA) for one week. Ex vivo autoradiographic images were obtained using a phosphor imaging system (Cyclone, Packard). Subsequently the same sections were stained with ThS to confirm the presence and location of Aβ plaques.

For `[18F]CCOc1ccc(OCc2ccc(I)cc2)cc1` [[^18F]7a], the logD [1] was 3.88 ± 0.17, the “Percentage of Parent tracer, Brain” value ([2]; post-injection time 2 min) was 84.7% and the “Percentage of Parent tracer, Feces” value ([2]; post-injection time 2 min) was 53.6%. The “Percentage of Parent tracer, Liver” value ([2]; post-injection time 2 min) was 79.5%, the “Percentage of Parent tracer, Plasma” value ([2]; post-injection time 2 min) was 43.1% and the “Percentage of Parent tracer, Urine” value ([2]; post-injection time 2 min) was 0.0%. For the same compound, the “Percentage of Parent tracer, Brain” value ([2]; post-injection time 10 min) was 69.8%, the “Percentage of Parent tracer, Feces” value ([2]; post-injection time 10 min) was 18.8% and the “Percentage of Parent tracer, Liver” value ([2]; post-injection time 10 min) was 62.6%. For the same compound, the “Percentage of Parent tracer, Plasma” value ([2]; post-injection time 10 min) was 21.6%, the “Percentage of Parent tracer, Urine” value ([2]; post-injection time 10 min) was 0.0% and the “Percentage of Parent tracer, Brain” value ([2]; post-injection time 30 min) was 68.9%. The “Percentage of Parent tracer, Feces” value ([2]; post-injection time 30 min) was 10.5%, the “Percentage of Parent tracer, Liver” value ([2]; post-injection time 30 min) was 48.7% and the “Percentage of Parent tracer, Plasma” value ([2]; post-injection time 30 min) was 21.8%. For the same compound, the “Percentage of Parent tracer, Urine” value ([2]; post-injection time 30 min) was 0.0%, the “Percentage of Parent tracer, Brain” value ([2]; post-injection time 60 min) was 34.0% and the “Percentage of Parent tracer, Feces” value ([2]; post-injection time 60 min) was 7.3%. For the same compound, the “Percentage of Parent tracer, Liver” value ([2]; post-injection time 60 min) was 23.4%, the “Percentage of Parent tracer, Plasma” value ([2]; post-injection time 60 min) was 7.2% and the “Percentage of Parent tracer, Urine” value ([2]; post-injection time 60 min) was 0.0%. For the same compound, the “brain uptake from PET time-activity curve” value ([3]; at 8 min) was 5.96 % ID/g, the “brain radioactivity retention from PET time-activity curve” value [3] was 3.08 % ID/g and the “muscle and bone uptake, standardized uptake value (SUV)” value [3] was about 0.7. For the same compound, the “in vitro autoradiography, plaque labeling” value (shortened to “in vitro autoradiography”) (Aβ plaques [4]) was “specifically label Aβ deposits”.
With `[18F]CCOc1ccc(COc2ccc(I)cc2)cc1` [[^18F]12a] the logD [1] was 3.84 ± 0.07, the “Percentage of Parent tracer, Brain” value ([2]; post-injection time 2 min) was 87.9% and the “Percentage of Parent tracer, Feces” value ([2]; post-injection time 2 min) was 46.7%. For the same compound, the “Percentage of Parent tracer, Liver” value ([2]; post-injection time 2 min) was 91.1%, the “Percentage of Parent tracer, Plasma” value ([2]; post-injection time 2 min) was 73.7% and the “Percentage of Parent tracer, Urine” value ([2]; post-injection time 2 min) was 0.0%. The “Percentage of Parent tracer, Brain” value ([2]; post-injection time 10 min) was 65.7%, the “Percentage of Parent tracer, Feces” value ([2]; post-injection time 10 min) was 20.9% and the “Percentage of Parent tracer, Liver” value ([2]; post-injection time 10 min) was 85.3%. The “Percentage of Parent tracer, Plasma” value ([2]; post-injection time 10 min) was 40.4%, the “Percentage of Parent tracer, Urine” value ([2]; post-injection time 10 min) was 0.0% and the “Percentage of Parent tracer, Brain” value ([2]; post-injection time 30 min) was 49.2%. The “Percentage of Parent tracer, Feces” value ([2]; post-injection time 30 min) was 16.8%, the “Percentage of Parent tracer, Liver” value ([2]; post-injection time 30 min) was 82.2% and the “Percentage of Parent tracer, Plasma” value ([2]; post-injection time 30 min) was 34.1%. The “Percentage of Parent tracer, Urine” value ([2]; post-injection time 30 min) was 0.0%, the “Percentage of Parent tracer, Brain” value ([2]; post-injection time 60 min) was 29.8% and the “Percentage of Parent tracer, Feces” value ([2]; post-injection time 60 min) was 17.4%. For the same compound, the “Percentage of Parent tracer, Liver” value ([2]; post-injection time 60 min) was 21.7%, the “Percentage of Parent tracer, Plasma” value ([2]; post-injection time 60 min) was 13.9% and the “Percentage of Parent tracer, Urine” value ([2]; post-injection time 60 min) was 0.0%. The “brain uptake from PET time-activity curve” value ([3]; at 7 min) was 6.74 % ID/g, the “brain radioactivity retention from PET time-activity curve” value [3] was 3.47 % ID/g and the “muscle and bone uptake, standardized uptake value (SUV)” value [3] was about 0.7. The “in vitro autoradiography” value (Aβ plaques [4]) was “specifically label Aβ deposits”.
In the case of `FCCOc1ccc(OCc2ccc([125I])cc2)cc1` [[^125I]7a], the “higher brain radioactivity retention in Tg mouse than in wild-type control mouse” value (Aβ plaques [5]; i.v., 1 mCi) is reported as 40%, the “ex vivo autoradiography, labeling of Aβ plaques” value (Aβ plaques [5]; Tg mouse brain sections) is reported as “clear labeling of Aβ plaques in the Tg mouse brain” and the logD [1] is reported as 3.96 ± 0.22. The “Percentage of Parent tracer, Brain” value ([2]; post-injection time 2 min) was 95.9%, the “Percentage of Parent tracer, Feces” value ([2]; post-injection time 2 min) was 22.9% and the “Percentage of Parent tracer, Liver” value ([2]; post-injection time 2 min) was 35.2%. The “Percentage of Parent tracer, Plasma” value ([2]; post-injection time 2 min) was 85.2%, the “Percentage of Parent tracer, Urine” value ([2]; post-injection time 2 min) was 0.0% and the “Percentage of Parent tracer, Brain” value ([2]; post-injection time 10 min) was 86.0%. For the same compound, the “Percentage of Parent tracer, Feces” value ([2]; post-injection time 10 min) was 58.8%, the “Percentage of Parent tracer, Liver” value ([2]; post-injection time 10 min) was 13.5% and the “Percentage of Parent tracer, Plasma” value ([2]; post-injection time 10 min) was 41.3%. The “Percentage of Parent tracer, Urine” value ([2]; post-injection time 10 min) was 2.6%, the “Percentage of Parent tracer, Brain” value ([2]; post-injection time 30 min) was 79.4% and the “Percentage of Parent tracer, Feces” value ([2]; post-injection time 30 min) was 2.0%. For the same compound, the “Percentage of Parent tracer, Liver” value ([2]; post-injection time 30 min) was 8.8%, the “Percentage of Parent tracer, Plasma” value ([2]; post-injection time 30 min) was 22.1% and the “Percentage of Parent tracer, Urine” value ([2]; post-injection time 30 min) was 0.0%. For the same compound, the “Percentage of Parent tracer, Brain” value ([2]; post-injection time 60 min) was 72.1%, the “Percentage of Parent tracer, Feces” value ([2]; post-injection time 60 min) was 0.0% and the “Percentage of Parent tracer, Liver” value ([2]; post-injection time 60 min) was 3.3%. The “Percentage of Parent tracer, Plasma” value ([2]; post-injection time 60 min) was 12.3%, the “Percentage of Parent tracer, Urine” value ([2]; post-injection time 60 min) was 0.0% and the “in vitro autoradiography” value (Aβ plaques [4]) was “specifically label Aβ deposits”.
